We go through one compound from BindingDB's records for doi:10.1021/jm030241s (National Cancer Institute-Frederick, 2003).

The target in the experiment is Thymidine kinase (Human herpesvirus 1). The experiment is described as follows: Binding affinity constant against HSV-1 thymidine kinase.

For the compound `O=c1[nH]c(=O)n([C@H]2C[C@H](O)[C@]3(CO)C[C@H]23)cc1C=CBr` [5-((E)-2-Bromo-vinyl)-1-((1R,3S,4S,6S)-4-hydroxy-5-hydroxymethyl-bicyclo[3.1.0]hex-2-yl)-1H-pyrimidine-2,4-dione], the Ki (in general, a measure of affinity in units of concentration, obtained from inhibition or displacement) stood at 62.9 µM.
